Legend:
Ku complex = biological target: T1, Ku complex (Homo sapiens, UniProt P12956+P13010); assay: Band-shift assay with Hep2 nuclear protein extracts; type: binding; conditions: for binding of Ku: Hep2 nuclear extract, band-shift; for retarded bands in band-shift assay: 10 nM 32P radio-labelled Dbait, 0-320 ng/μL Hep2 nuclear proteins, 30° C., 10 minutes
T1 construct: in the presence of nuclear protein extracts from Hep2 cells according to standard protocol; endogenous in cells; host or cells: Hep2 cells (nuclear protein extract)
T1 sequence (P12956 whole entry): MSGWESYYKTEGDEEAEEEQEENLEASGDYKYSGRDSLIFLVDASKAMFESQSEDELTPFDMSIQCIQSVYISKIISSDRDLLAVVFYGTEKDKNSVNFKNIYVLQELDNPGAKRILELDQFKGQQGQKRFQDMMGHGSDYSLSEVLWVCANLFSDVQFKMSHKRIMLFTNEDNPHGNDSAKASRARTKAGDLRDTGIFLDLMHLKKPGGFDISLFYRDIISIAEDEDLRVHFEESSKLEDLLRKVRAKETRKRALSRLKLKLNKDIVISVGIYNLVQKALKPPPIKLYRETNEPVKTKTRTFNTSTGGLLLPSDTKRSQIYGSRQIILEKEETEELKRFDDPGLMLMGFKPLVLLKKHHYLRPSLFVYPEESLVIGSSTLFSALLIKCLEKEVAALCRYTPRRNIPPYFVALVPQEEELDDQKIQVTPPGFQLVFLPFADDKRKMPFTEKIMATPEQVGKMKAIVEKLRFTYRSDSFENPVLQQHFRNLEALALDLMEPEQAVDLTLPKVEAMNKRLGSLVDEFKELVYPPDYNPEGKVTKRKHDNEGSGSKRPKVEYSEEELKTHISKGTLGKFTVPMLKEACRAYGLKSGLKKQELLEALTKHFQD
T1 sequence (P13010 whole entry): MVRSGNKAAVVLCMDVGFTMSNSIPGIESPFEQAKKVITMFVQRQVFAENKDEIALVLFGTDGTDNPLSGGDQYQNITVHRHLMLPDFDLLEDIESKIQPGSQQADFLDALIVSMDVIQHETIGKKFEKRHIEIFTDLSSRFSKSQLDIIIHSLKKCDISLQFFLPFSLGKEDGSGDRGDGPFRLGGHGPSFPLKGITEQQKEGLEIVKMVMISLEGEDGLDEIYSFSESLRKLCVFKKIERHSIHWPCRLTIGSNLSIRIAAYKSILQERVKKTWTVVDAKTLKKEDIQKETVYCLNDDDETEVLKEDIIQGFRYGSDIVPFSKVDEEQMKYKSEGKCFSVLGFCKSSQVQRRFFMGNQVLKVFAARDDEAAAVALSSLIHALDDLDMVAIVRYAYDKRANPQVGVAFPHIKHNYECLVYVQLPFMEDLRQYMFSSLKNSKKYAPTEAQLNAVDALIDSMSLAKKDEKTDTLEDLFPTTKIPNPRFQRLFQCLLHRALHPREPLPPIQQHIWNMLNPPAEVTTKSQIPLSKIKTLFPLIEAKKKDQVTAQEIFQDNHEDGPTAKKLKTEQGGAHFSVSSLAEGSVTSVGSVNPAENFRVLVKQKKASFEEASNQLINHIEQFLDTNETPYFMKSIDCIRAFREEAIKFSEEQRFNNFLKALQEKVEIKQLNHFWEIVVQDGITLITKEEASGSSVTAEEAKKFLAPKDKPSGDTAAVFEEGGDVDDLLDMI
Description: As the first step to dissect the mechanism of action of Dbait molecules, a series of band-shift assays were carried out with different ^32P radio-labelled Dbait molecules in the presence of nuclear protein extracts from Hep2 cells according to standard protocol. Typically, 10 nM ^32P radio-labelled Dbait molecules were incubated in the presence of various concentrations of nuclear proteins (0, 10, 20, 40, 80, 160, and 320 ng/μL) at 30° C. for 10 minutes in TBE buffer. Then the samples were loaded on a 5% acrylamide native gel. The electrophoresis was run at 95V for 2 hours at 4° C. The gel was dried and scanned by phosphorimager (Molecular Dynamics).
For 32-bp Dbait molecules, the intensity of the retarded band 1 increases and then decreases as the concentration of protein increases, while the intensity of the retarded band 2 increases as a function of the concentration of nuclear protein extracts.
It is likely that band 1 has one Ku70/80 complex bound to the 16 to 32-bp Dbait, whereas the band 2 has two Ku70/80 complexes bound to the 32-bp Dbait molecules. Control experiments performed with purified Ku proteins confirmed this interpretation.

[1] = system: DNA end-joining reaction in the nuclear extracts of Hep2 cells; assay: DNA end-joining assay in Hep2 nuclear extract; type: biochemical, human; conditions: for ligation of DNA fragments in cell-free assay: 2 h incubation with various Dbait
Description: DNA end-joining was monitored by incubating ^32P-labeled 605-bp linear DNA fragments with Hep2 nuclear extract in the presence of various Dbait molecules. Ligation products migrate as dimers, trimers or tetramers, starting 605 bp monomer.
Approximately 16% of the ^32P-labeled blunt linear duplex DNA molecules were ligated into dimers and trimers during the first 2 h of incubation. The amount of high molecular weight ligation products increased up to 30% of the total input DNA after 16 h. […] In most experiments, Dbait32H (SEQ ID NO: 1) was added simultaneously with the labeled DNA fragments to the nuclear extract.
Various Dbait molecules were tested for their effect on the cell-free assay by adding the molecules to nuclear extract and incubating for 2 h with the DNA fragments.
DNA-PK activity was monitored using the kit SignaTECT DNA-dependent Protein Kinase Assay System (Promega, Madison, USA). Increasing amounts of Hep2 nuclear extract (cleaned of endogenous DNA by DEAE-Sepharose filtration) were assayed in the presence of 250 nM Dbait. Extract, biotinylated peptide substrate and various amount of nuclear extract were incubated 5 minutes at 30° C. with (γ-^32P)ATP according to manufacturer indications. The biotinylated substrate was capture on streptavidine membrane, washed and counted in a scintillation counter. Percentage of phosphorylation is calculated by dividing the bound radioactivity by the total count of (γ-^32P)ATP per sample. Reactions (10 μl) were carried out in 60 mM KOAc, 100 μg/ml BSA, 0.5 mM Mg(Cl)2, 1 μl T4 DNA ligase 10× buffer (Promega, Madison, USA). Nuclear extract and Dbait were incubated 2 minutes before addition of ^32P-labeled DNA (10 ng). Samples were incubated various time at 37° C. before ligation being stopped by 20 mM EDTA and 1 mg/ml Proteinase K addition. Ligation products were analyzed by electrophoresis through 0.7% agarose gels followed by autoradiography and quantification by phosphorimaging.

[2] = system: radiation-enhanced illegitimate integration of a plasmid in Hela cells; assay: Inhibition of radiation-enhanced illegitimate integration of exogenous DNA; type: cell-based, human; conditions: for radiation-enhanced illegitimate integration of plasmid (puromycin resistance): 2 μg Dbait, fractionated 4×0.5 Gy irradiation
Description: Exponentially growing cells in six-well plates were harvested and incubated with […] of complete DMEM containing a mixture of Dbait molecules and Superfect reagent (Qiagen, Courtaboeuf, France) in a ratio of 10 μl Superfect per μg DNA. After 5 h at 37° C. under standard conditions, the cells were washed with PBS and complete DMEM was added. Where indicated, cells were exposed to irradiation either in one session (10 Gy) 5 h after the beginning of transfection or in four sessions of 0.5 Gy administered with a ^137Cs unit (1 Gy/min) 3, 4, 5 and 6 h after the beginning of transfection and allowed to grow for two weeks. When plasmid integration was measured, 2 μg of plasmid was added to Dbait transfection and puromycin (1.7 μg/ml) was added to the growth medium 48 h after transfection. Plasmid transfection efficiency was estimated by analyzing 10,000 cells for GFP expression on a FACScan flow cytometer (FACSalibur, Beckton-Dickinson, USA).
Ionizing radiation is known to improve illegitimate integration of exogenous DNA, a process termed radiation-enhanced integration. Hela cell culture was used for this assay. Cells were transfected during 8 hours by 2 μg of a linear plasmid carrying the gene coding for neomycin resistance, and three different ratio of DNA/superfect (1:2, 1:5, 1:10). During transfection time, the cells were exposed to different irradiation protocols: no irradiation, one single irradiation of 1 Gy and 2 Gy, as well as a 2 Gy irradiation delivered by fractionated doses of 0.5 Gy every 2 hours (4×0.5 Gy). The integration of the plasmid was monitored by selection of Neo^R cells growing in a medium containing 0.6 mg/ml of G418. […] When 2 μg of Dbait32H (SEQ ID NO: 1) molecules were added to the transfection mix, the radiation-enhanced integration was abolished (FIG. 2.3).
Wortmann (Wort) and NU7026 (NU) which are known inhibitors of PI3K (including DNA-PK) were used as control.

[3] = system: p53 serine 15 phosphorylation in GMA32 cells; assay: Western blot of p53 serine 15 phosphorylation in GMA32 cells; type: cell-based, Chinese hamster; conditions: GMA32, Dbait with lipofectamine, no irradiation or mitotic inhibitor
Description: Further experiment was carried out in order to look for evidence of DNA damage signaling. The protein p53 is a well known major protein in mediating DNA damage signaling and in coordinating appropriate responses (DNA repair, apoptosis, etc.) by changing its phosphorylation status. In particular, the phosphorylation of serine 15 residue is involved in the interaction with MDM2 protein which acts as a feed back control Thus, the phosphorylation status of the serine 15 of p53 was assessed by Western blot.
For Western blot analysis, cells were lysed in Laemmli buffer. Equal amounts of lysates were resolved in 12% polyacrylamide gels. Proteins were transferred to nitrocellulose membranes, which were blocked with 5% nonfat milk (1 hour) before overnight incubation with anti-p53Ser15 antibody (9284, Cell Signaling) diluted 500 folds in TBST buffer (10 mM Tris-HCl pH7.5, 150 mM NaCl, 0.1% Tween 20) containing 5% nonfat milk. Blots were then incubated with horseradish peroxidase-conjugated goat anti-rabbit IgG secondary antibodies (P0448, Dako) diluted 1/5000 in TBST. Protein-antibody complexes were detected by enhanced chemiluminescence (RPN2106 ECL, Amersham).

Substance	binding of Ku (Ku complex)	ligation of DNA fragments in cell-free assay [1]	radiation-enhanced illegitimate integration of plasmid (puromycin resistance) [2]	phosphorylation of p53 serine 15 [3]	retarded bands in band-shift assay (Ku complex)	DNA end-joining (ligation) ([1]; Dbait added 30 min after the nuclear extract (data not shown))	DNA end-joining (ligation of 32P-labeled linear DNA fragments) ([1]; Dbait added simultaneously with fragments, 100-fold molar excess)	DNA end-joining (ligation) ([1]; Dbait incubated with the extract for 30 min before addition of fragments)	radiation-enhanced integration of linear plasmid (neomycin resistance) ([2]; Hela, 2 μg Dbait added to transfection mix, 4×0.5 Gy)
Dbait8H: hairpin double strand DNA with a stem of 8-bp (DNA ACGCACGG; DNA, backbone not given here; hairpin, hexaethyleneglycol loop, 3-bp phosphorothioate at free blunt end)	dID NO:t bind Ku	largely unaffected	not effective	Neither the shortest Dbait8H (SEQ ID NO: 4) nor single strand Dbaut32ss (SEQ ID NO: 1) molecules were able to induced significant phosphorylation	–	–	–	–	–
Dbait32ss: 32-nt single strand DNA (SEQ ID NO: 1) (DNA ACGCACGGGTGTTGGGTCGTTTGTTCGGATCT; DNA, backbone not given here)	–	largely unaffected	not effective	Neither the shortest Dbait8H (SEQ ID NO: 4) nor single strand Dbaut32ss (SEQ ID NO: 1) molecules were able to induced significant phosphorylation	–	–	–	–	–
Dbait16H: hairpin double strand DNA with a stem of 16-bp (DNA ACGCACGGGTGTTGGG; DNA, backbone not given here; hairpin DNA with hexaethyleneglycol loop, 3-bp phosphorothioate at free blunt end)	bound only one Ku dimer	inhibited the ligation as efficiently as Dbait32H	not effective	moderate phosphorylation	One retarded band	–	–	–	–
Dbait32H: hairpin double strand DNA with a stem of 32-bp, hexaethyleneglycol linker, phosphorothioate at the free blunt end (DNA ACGCACGGGTGTTGGGTCGTTTGTTCGGATCT; DNA, backbone not given here; hairpin, hexaethyleneglycol loop, 3-bp phosphorothioate at free blunt end)	–	–	capable of inhibiting	highly phosphorylated	two retarded band	no inhibition of the ligation	strongly inhibited	extent of inhibition was similar	abolished
